Each structure is given as a SMILES string.

Results on 4 compounds are retold here after patent US20170000132A1, “BENZOXABOROLE FUNGICIDES” (SYNGENTA PARTICIPATIONS AG, priority 2013, published 2017).

Assay [1] deals with Monographella nivale (Microdochium nivale). Description: Monographella nivale / wheat pouch test with infected seeds. The settings on record: 60 ppm; infected wheat seeds cv. Arina in pouch, 4 weeks after sowing; compared to untreated control. In kind it is in vivo, M. nivale. The method, then:
Fungicidal Activity Against Monographella nivale (Microdochium nivale)/Wheat
Formulated test compound is applied into a pouch which was previously equipped with a filter paper. After the application wheat seeds cv. Arina infected with M. nivale are sown into the upper fault of the filter paper. The pouches are then incubated for 7 days in the dark at 7° C./5° C. (day/night) and 80% r. h. After 1 week light is supplied at the same temperature cycle. Another two weeks later plants were transferred to 17° C./16° C. (day/night) and 80% r. H. The disease incidence is assessed 4 weeks after sowing.

The test system of a further assay is Puccinia recondita. As to the kind of experiment: Puccinia recondita / wheat plants, spray chamber. Type of assay: in vivo. The settings on record: 20 ppm; 1 week old wheat plants cv. Arina, sprayed 2 days before inoculation, assessed 10 days after inoculation. The method, then:
Fungicidal Activity Against Puccinia recondita/Wheat 1 week old wheat plants cv. Arina were treated with the formulated test compound in a spray chamber. Two days after application wheat plants were inoculated by spraying a spore suspension (1×105 uredospores/ml) on the test plants. After an incubation period of 1 day at […] and 95% r. h. plants were kept for 9 days at […] and 60% r.h. in a greenhouse. The disease incidence was assessed 10 days after inoculation.

The test system of a further assay is Phytophthora infestans. Type of assay: in vivo. The settings on record: 200 ppm; tomato leaf disks, preventative; compared to untreated control.
For assay [2], the system named is Giberella zeae (Fusarium graminearum). In kind it is in vivo. The settings on record: 200 ppm; wheat spikelets, preventative, assessed 6 dpi; compared to untreated control.

As for `CCOC(=O)CNN=Cc1cc2c(cc1Cl)COB2O` (single isomer, unassigned) [Compound 70], the “disease control (disease incidence)” value in assay [1] is “at least 80%”.

For the compound `OB1OCc2cc(Cl)c(C=NOCC=C(Cl)Cl)cc21` (single isomer, unassigned) [Compound 50], the “disease control (disease incidence)” value with Puccinia recondita is listed as “at least 80%”.

For `CNC(=S)NN=Cc1cc(Cl)cc2c1B(O)OC2` (single isomer, unassigned) [Compound 224], the disease control entry in the assay with Phytophthora infestans is given as “at least 80%”.

With `COC(=O)Cc1ccccc1CON=Cc1cc2c(cc1Cl)COB2O` (single isomer, unassigned) [Compound 59], the disease control result in assay [2] was “at least 80%”.
